{"source": "the Deep4Chem optical property database", "test": "solvent given as SMILES", "data": [{"smiles": "Cc1c(C)c(N2c3ccccc3Oc3ccccc32)c(C)c(C)c1B(c1c(C)c(C)c(N2c3ccccc3Oc3ccccc32)c(C)c1C)c1c(C)c(C)c(N2c3ccccc3Oc3ccccc32)c(C)c1C", "values": [{"measurement": "absorption maximum", "setting": "in CC(C)(C)c1ccc(-n2c3ccc([Si](c4ccccc4)(c4ccccc4)c4ccccc4)cc3c3cc([Si](c4ccccc4)(c4ccccc4)c4ccccc4)ccc32)cc1", "result": 398, "unit": "nm"}]}, {"smiles": "Cc1cc2nc3cc(C)c(N)cc3[n+](-c3ccccc3)c2cc1N", "values": [{"measurement": "absorption maximum", "setting": "in CC(C)O", "result": 537.1, "unit": "nm"}, {"measurement": "absorption maximum", "setting": "in CCO", "result": 534, "unit": "nm"}, {"measurement": "absorption maximum", "setting": "in CO", "result": 529, "unit": "nm"}, {"measurement": "absorption maximum", "setting": "in O", "result": 520, "unit": "nm"}]}, {"smiles": "CCCCOC(=O)c1cc(Cl)c2c3c(Cl)cc4c5c(cc(Cl)c(c6c(Cl)cc(C(=O)OCCCC)c1c26)c53)C(=O)N(c1c(C(C)C)cccc1C(C)C)C4=O", "values": [{"measurement": "absorption maximum", "setting": "in Cc1ccccc1", "result": 496, "unit": "nm"}]}, {"smiles": "O=C1/C(=C2\\Sc3ccc(S(=O)(=O)Nc4ccccc4)cc3C2=O)Sc2ccc(S(=O)(=O)Nc3ccccc3)cc21", "values": [{"measurement": "absorption maximum", "setting": "in C1COCCO1", "result": 534, "unit": "nm"}, {"measurement": "absorption maximum", "setting": "in CN(C)C=O", "result": 542, "unit": "nm"}, {"measurement": "absorption maximum", "setting": "in CO", "result": 536, "unit": "nm"}, {"measurement": "absorption maximum", "setting": "in CS(C)=O", "result": 546, "unit": "nm"}]}, {"smiles": "CCNc1cc2c(cc1C)C(c1ccccc1C(=O)O)=C1CCCC(/C=C/C3=[N+](C)c4ccc5ccccc5c4C3(C)C)=C1O2", "values": [{"measurement": "absorption maximum", "setting": "in CC#N", "result": 716, "unit": "nm"}, {"measurement": "absorption maximum", "setting": "in CCO", "result": 708, "unit": "nm"}, {"measurement": "absorption maximum", "setting": "in CO", "result": 710, "unit": "nm"}, {"measurement": "absorption maximum", "setting": "in ClC(Cl)Cl", "result": 722, "unit": "nm"}]}, {"smiles": "N#Cc1ccc(C2=Cc3cc4ccccc4cc3P2(=O)c2ccccc2)cc1", "note": "(stereo unspecified)", "values": [{"measurement": "absorption maximum", "setting": "in ClCCl", "result": 391, "unit": "nm"}]}, {"smiles": "CC1(C)C(/C=C/C2=C(Oc3ccc(CCN=C=S)cc3I)C(=C/C=C3/N(CCCS(=O)(=O)[O-])c4ccccc4C3(C)C)/CCC2)=[N+](CCCS(=O)(=O)[O-])c2ccccc21", "values": [{"measurement": "absorption maximum", "setting": "in CO", "result": 766, "unit": "nm"}]}, {"smiles": "Cc1cc(C)cc(NC(=O)c2sc(Br)nc2C)c1", "values": [{"measurement": "absorption maximum", "setting": "in C1CCOC1", "result": 293.4, "unit": "nm"}, {"measurement": "absorption maximum", "setting": "in CC#N", "result": 285, "unit": "nm"}, {"measurement": "absorption maximum", "setting": "in CCCCCC", "result": 280.5, "unit": "nm"}, {"measurement": "absorption maximum", "setting": "in CCOC(C)=O", "result": 282.5, "unit": "nm"}, {"measurement": "absorption maximum", "setting": "in CN(C)C=O", "result": 285.3, "unit": "nm"}, {"measurement": "absorption maximum", "setting": "in CO", "result": 271.5, "unit": "nm"}, {"measurement": "absorption maximum", "setting": "in CS(C)=O", "result": 283.1, "unit": "nm"}, {"measurement": "absorption maximum", "setting": "in ClC(Cl)Cl", "result": 278, "unit": "nm"}]}, {"smiles": "COc1ccc(C2=C(c3ccc(OC)cc3)C(C)(C)c3ccccc32)cc1", "values": [{"measurement": "absorption maximum", "setting": "in C1CCCCC1", "result": 283, "unit": "nm"}]}, {"smiles": "CNc1ccc2c(c1)C(=O)c1ccccc1-2", "values": [{"measurement": "absorption maximum", "setting": "in C1CCCCC1", "result": 474, "unit": "nm"}, {"measurement": "absorption maximum", "setting": "in CC#N", "result": 508, "unit": "nm"}, {"measurement": "absorption maximum", "setting": "in CCO", "result": 511, "unit": "nm"}, {"measurement": "absorption maximum", "setting": "in c1ccccc1", "result": 491, "unit": "nm"}]}, {"smiles": "O=[N+]([O-])c1ccc(NCCNCc2c3ccccc3cc3ccccc23)c([N+](=O)[O-])c1", "values": [{"measurement": "absorption maximum", "setting": "in C1CCCCC1", "result": 368, "unit": "nm"}, {"measurement": "absorption maximum", "setting": "in C1CCOC1", "result": 349, "unit": "nm"}, {"measurement": "absorption maximum", "setting": "in CC#N", "result": 364, "unit": "nm"}, {"measurement": "absorption maximum", "setting": "in CC(C)=O", "result": 364, "unit": "nm"}, {"measurement": "absorption maximum", "setting": "in CCO", "result": 364, "unit": "nm"}, {"measurement": "absorption maximum", "setting": "in CN(C)C=O", "result": 363, "unit": "nm"}, {"measurement": "absorption maximum", "setting": "in CO", "result": 348, "unit": "nm"}, {"measurement": "absorption maximum", "setting": "in ClC(Cl)Cl", "result": 350, "unit": "nm"}]}, {"smiles": "Cc1cc(-c2nc(-c3ccccc3)nc(-c3ccccc3)n2)ccc1-n1c2ccccc2c2cc3c(cc21)C1c2ccccc2C3c2ccccc21", "values": [{"measurement": "absorption maximum", "setting": "in Cc1ccccc1", "result": 364, "unit": "nm"}]}, {"smiles": "CON(OC)c1cc2c3cc(-c4c(C)cc(C)cc4C)cc4c5cc(-c6c(C)cc(C)cc6C)cc6c7cc(B(c8c(C)cc(C)cc8C)c8c(C)cc(C)cc8C)cc8c9cc(-c%10c(C)cc(C)cc%10C)cc%10c%11cc(-c%12c(C)cc(C)cc%12C)cc%12c(c1)c2c1c(c43)c(c65)c(c78)c(c9%10)c1c%11%12", "values": [{"measurement": "absorption maximum", "setting": "in C1CCOC1", "result": 452, "unit": "nm"}, {"measurement": "absorption maximum", "setting": "in CC(C)=O", "result": 445, "unit": "nm"}, {"measurement": "absorption maximum", "setting": "in CCCCCC", "result": 453, "unit": "nm"}, {"measurement": "absorption maximum", "setting": "in Cc1ccccc1", "result": 461, "unit": "nm"}, {"measurement": "absorption maximum", "setting": "in ClC(Cl)Cl", "result": 449, "unit": "nm"}, {"measurement": "absorption maximum", "setting": "in ClCCl", "result": 450, "unit": "nm"}]}, {"smiles": "CCCCCCOc1ccc(-c2ccc(/C=C/c3cc(/C=C/c4ccc(-c5ccc(OCCCCCC)cc5)cc4)ncn3)cc2)cc1", "values": [{"measurement": "absorption maximum", "setting": "in ClCCl", "result": 373, "unit": "nm"}]}, {"smiles": "C(S/C=C/c1ccc(/C=C/SC=C2CCCCC2)cc1)=C1CCCCC1", "values": [{"measurement": "absorption maximum", "setting": "in ClCCl", "result": 350, "unit": "nm"}]}, {"smiles": "COc1ccc(/C=C/C2=CC(/C=C/c3ccc(OC)c4ccccc34)=[O+][B-](F)(F)O2)c2ccccc12", "values": [{"measurement": "absorption maximum", "setting": "in CC#N", "result": 530, "unit": "nm"}, {"measurement": "absorption maximum", "setting": "in CC(C)=O", "result": 532, "unit": "nm"}, {"measurement": "absorption maximum", "setting": "in CCOC(C)=O", "result": 524, "unit": "nm"}, {"measurement": "absorption maximum", "setting": "in CCOCC", "result": 516, "unit": "nm"}, {"measurement": "absorption maximum", "setting": "in ClC(Cl)(Cl)Cl", "result": 523, "unit": "nm"}, {"measurement": "absorption maximum", "setting": "in ClCCl", "result": 536, "unit": "nm"}]}, {"smiles": "CCCCCCCCCCn1nnc(-c2ccc(C#Cc3ccc(C#Cc4ccc(-c5nnn(CCCCCCCCCC)n5)cc4)c4nc5c6ccccc6c6ccccc6c5nc34)cc2)n1", "values": [{"measurement": "absorption maximum", "setting": "in C1CCOC1", "result": 428, "unit": "nm"}, {"measurement": "absorption maximum", "setting": "in Cc1ccccc1", "result": 428, "unit": "nm"}, {"measurement": "absorption maximum", "setting": "in ClCCl", "result": 428, "unit": "nm"}]}, {"smiles": "c1ccc(N(c2ccccc2)c2ccc(-n3ccc4cc(-c5cccc6c5-c5ccccc5C6(c5ccccc5)c5ccccc5)ccc43)cc2)cc1", "values": [{"measurement": "absorption maximum", "setting": "in ClCCl", "result": 322, "unit": "nm"}]}, {"smiles": "CCCCCCOc1ccc2c(c1)-c1cc3c(cc1[Si]2(C)C)-c1ccccc1[Si]3(C)C", "values": [{"measurement": "absorption maximum", "setting": "in ClCCl", "result": 327, "unit": "nm"}]}, {"smiles": "c1cc(-c2ccc3c(c2)CCCO3)ccc1-c1ccc2c(c1)CCCO2", "values": [{"measurement": "absorption maximum", "setting": "in C1CCCCC1", "result": 295, "unit": "nm"}]}, {"smiles": "Clc1cnc2nn3ccccc3c2n1", "values": [{"measurement": "absorption maximum", "setting": "in C1CCOC1", "result": 404, "unit": "nm"}]}, {"smiles": "CCN(CC)c1ccc2c(c1)oc(=O)c1cc3c(-c4ccccc4)nn(-c4ccccc4)c3nc12", "values": [{"measurement": "absorption maximum", "setting": "in ClCCl", "result": 359, "unit": "nm"}]}, {"smiles": "CC[n+]1c(-c2ccccc2)c2cc(-n3cccc3)ccc2c2ccc(N)cc21", "values": [{"measurement": "absorption maximum", "setting": "in O", "result": 462, "unit": "nm"}]}]}
